{
  "source": "patent US20260007774A1",
  "about": "“AAV-MEDIATED DELIVERY OF RGS10 TO MICROGLIA” (NEURONITY THERAPEUTICS, INC., priority 2022, published 2026)",
  "key": {"RGS10 KD BV2 cells": {"test_system": "RGS10 KD BV2 cells", "assay": "TNF-α production after antioxidant treatment, RGS10 KD BV2 microglia (Meso-Scale Discovery immunoassay)", "format": "cell-based, mouse", "conditions": "5 mM, 18 hours", "experimental": "(§1) BV2 cells are a type of microglial cell line that was originally derived from a C57/B16 mouse. BV2 cells were immortalized by v-raf/v-myc J2 retrovirus.\n(§2) The role of RGS10 in regulating a response to inflammatory and metabolic stresses was assessed in microglia cells. BV2 cells were grown in culture and RGS10 expression in BV2 cells was diminished by CRISPR/Cas9 RGS10 knockout methods. Control cells were obtained from CRISPR/Cas9 controls.\n(§3) Control and RGS10 KD BV2 cells were allocated into 2 test conditions. The 2 test conditions were 1) Control (no treatment) 2) N-acetylcysteine (NAC) treatment (5 mM). NAC is an antioxidant precursor. NAC is a precursor of L-cysteine that results in biosynthesis of glutathione. Glutathione is a powerful, naturally occurring antioxidant. NAC also acts directly as a scavenger of free radicals, especially oxygen radicals, illustrating extensive antioxidant properties of NAC treatment. NAC treatment in cells leads to a reduction in reactive oxidative species (ROS).\n(§4) Cultured cells were subjected to test conditions for 18 hours and then assayed for production of TNF-α using an immunoassay (Meso-Scale Discovery). Values for TNF-α production in Control and RGS10 KD BV2 cells under Condition 1) were scaled to value of 1.0. Values for TNF-α production after NAC treatment were represented as a % of change relative to Condition 1) levels and were graphed in FIG. 3."}, "Control BV2 cells": {"test_system": "Control BV2 cells", "assay": "TNF-α production after antioxidant treatment, Control BV2 microglia (Meso-Scale Discovery immunoassay)", "format": "cell-based, mouse", "conditions": "5 mM, 18 hours", "experimental": "as §1, §2, §3, §4"}},
  "data": [
    {"smiles": "CC(=O)N[C@@H](CS)C(=O)O", "note": "[NAC, N-acetylcysteine]", "values": [
      {"measurement": "TNF-α production after treatment vs no treatment", "setting": "RGS10 KD BV2 cells", "result": "statistically significant reduction in level of TNF-α production"},
      {"measurement": "TNF-α production after treatment vs no treatment", "setting": "Control BV2 cells", "result": "statistically significant reduction in level of TNF-α production"}
    ]}
  ]
}
